Laboratory results: patent publication US7989466B2, “Methods to inhibit or augment an inflammatory response” (Cambridge Enterprise Limited, priority 1999, dated 2011)
Marks after values point to notes of the source that are not given here. Positions of bridges follow the written chain, without caps; N, C: chain ends. Non-standard residues stand in square brackets, D forms with d. No end group written: not given here.

Experiments:
HIV = assay type: cell-based; settings: ns = not significantly different from control
[1] = tested on: SDF-1α induced THP-1 migration; test: THP-1 trans-well migration assay, SDF-1α as chemoattractant; assay type: cell-based, human; settings: ns = not significantly different from control
Method: (§1) To determine whether an agent inhibits a chemokine-induced activity, such as macrophage recruitment, varying amounts of the agent are mixed with cells in the presence of a known chemoattractant. For example, a range of known concentrations of an agent, e.g., a chemokine peptide, is incubated with a defined number (e.g., 10^4-10^6) of human THP-1 monocyte cells in individual wells of the top compartment of a trans-well plate. Chemokine (such as MCP-1, MIP1α, IL8 or SDF-1α), at a concentration known to cause significant migration of THP-1 cells in the trans-well migration assay, is placed in the lower compartment (FIG. 1). Cells are then incubated at 37° C. for a period sufficient to allow migration, e.g., 4 hours. After incubation, the cells are gently removed from the top of the filter with a pipette, 20 μl of 20 mM EDTA in simple PBS is added into each top well, and incubated for 20 minutes at 4° C. The filter is carefully flushed with media using a gentle flow, and removed. A standard curve consisting of a two-fold dilution series of THP-1 cells (in 29 μl) is prepared to accurately quantify the number of cells that have migrated. Migrated cells are stained with 3 μl of MTT stock dye solution which is added directly into each well (5 mg/ml in RPMI-1640 without phenol red, Sigma Chemical Co.) and incubated at 37° C. for 4 hours. The media is carefully aspirated from each well, and the converted dye is solubilized by 20 μl of DMSO. Absorbance of converted dye is measured at a wavelength of 595 nm using an ELISA plate reader. The number of migrated cells in each well is then determined by interpolation of the standard curve (see also Imai et al., J. Biol. Chem., 272, 15036 (1997)).
(§2) For this assay, THP-1 cells were maintained at a density of 4×10^5 cells per ml in RPMI-1640 supplemented with 10% fetal calf serum+20 μM 2-mercaptoethanol. Chemotaxis was induced in a 96-well disposable chemotaxis chamber fitted with a […] polycarbonate filter (PVP free, ChemoTX, Neuroprobe Inc., Cabin John). Twenty-nine μl of chemoattractant (recombinant human chemokine; 50 ng/ml, i.e., 5.9 nM) or control (100 ng/ml TGFβ) was added to the lower compartment of each well. The framed filter was aligned with the holes in the corner of the filter frame and placed over the wells. Five×10^4 THP-1 cells in 25 μl of RPMI-1640 were added to the upper compartment. Peptides were dissolved in Milli Q water and then serially diluted in culture medium. In most cases, the serially diluted peptides were added to the upper compartment of the chemotaxis chamber. The chamber was incubated at 37° C. in a humidified atmosphere of 5% CO2 for 4 hours.
(§3) After incubation, the cells were gently removed from the top of the filter with a pipette, 20 μl of 20 mM EDTA in PBS was added into each top well, and the mixture was incubated for 20 minutes at 4° C. The filter was then carefully flushed with media using a gentle flow, and removed. A standard curve was prepared to accurately quantify the number of THP-1 cells that had migrated. The curve was based on a two-fold dilution series of THP-1 cells (top standard 100,000 cells in 29 μl). Cells which had migrated, and in separate wells, the cells in the standards, were stained with 3 μl of MTT stock solution which was added directly into each well (5 mg/ml in RPMI 1640 without phenol red, Sigma Chemical Co.) and incubated at 37° C. for 4 hours. The media was carefully aspirated from each well, and the converted dye was solubilized by 20 μl of DMSO. Absorbance of converted dye was measured at a wavelength of 595 nm using an ELISA plate reader. The number of cells that had migrated in each well was determined by interpolation of the standard curve.

gp120 = settings: ns = not significantly different from control; >100 = ED50 not determined
[2] = tested on: MIP1α induced THP-1 migration; test: THP-1 trans-well migration assay, MIP1α as chemoattractant; assay type: cell-based, human; settings: ns = not significantly different from control
Method: as §1, §2, §3

[3] = tested on: MCP-1 induced THP-1 migration; test: THP-1 trans-well migration assay, MCP-1 as chemoattractant; assay type: cell-based, human; settings: ns = not significantly different from control
Summary of the method: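 5×10^4 THP-1 cells with serially diluted peptide in upper chamber, 5 µm filter, recombinant human chemokine 50 ng/ml (5.9 nM) in lower chamber. Incubated 4 h at 37 °C. Migrated cells counted by MTT staining, A595 read against a THP-1 standard curve.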

[4] = in vivo; cited from earlier work
[5] = molecular target: T1, Duffy Antigen Receptor for Chemokines (DARC) (Homo sapiens, UniProt Q16570); test: DARC binding: competition with 125I-MCP-1 on red blood cells; settings: for DARC binding: ns = not significantly different from control, >100 = ED50 not determined
T1 sequence (Q16570 1-336): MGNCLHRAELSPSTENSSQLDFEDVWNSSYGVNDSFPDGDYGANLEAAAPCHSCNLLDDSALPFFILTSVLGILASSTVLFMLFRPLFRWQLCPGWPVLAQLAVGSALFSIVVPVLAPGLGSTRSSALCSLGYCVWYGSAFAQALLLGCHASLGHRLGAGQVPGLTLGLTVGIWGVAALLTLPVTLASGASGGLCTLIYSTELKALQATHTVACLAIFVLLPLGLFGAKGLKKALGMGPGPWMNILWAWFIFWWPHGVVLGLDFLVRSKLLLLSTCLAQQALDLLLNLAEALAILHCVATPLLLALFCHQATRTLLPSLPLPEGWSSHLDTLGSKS

[6] = tested on: chemokine-induced THP-1 migration; test: THP-1 trans-well migration assay, panel of chemokines (MCP-1, MIP1α, IL-8, SDF1α); assay type: cell-based, human; settings: MCP-1, MIP1α, IL-8, SDF1α
[7] = tested on: chemokine receptors on THP-1 cells; test: Binding to chemokine receptors on THP-1 cells; design: species or system human
Method: In general, specific binding is calculated as the amount of labeled agent bound in the absence of cold competitor minus the amount of labeled agent bound in the presence of cold competitor. The amount of specific binding in the presence of varied amounts of cold competitor can be used to determine the association constant for the agent, as well as the number of binding sites on the cell for the agent, using, for example, Scatchard Analysis. The agent may be labeled by radiolabeling (e.g., iodination) or with a suitable biochemical tag (e.g., biotin) or by addition of a photoactivatable crosslinking group. Agents with an association constant lower than 100 μM (i.e., which bind more strongly than an agent with an association constant of 100 μM) and which have at least about 2,500, preferably at least about 10,000, and more preferably greater than 25,000, binding sites per cell for at least one cell type which expresses a chemokine receptor, fall under the scope of this invention. THP-1 cells have at least about 5,000 MCP-1 receptors/cell.
For example, monocytes are suspended in RPMI 1640 medium without bicarbonate containing 0.2% bovine serum albumin and 0.1% azide. Radiolabeled chemokine peptide is incubated with 1-2×10^6 cells, e.g., THP-1 cells, in the presence or absence of increasing concentrations of unlabeled chemokine (MCP-1, MCP-3, MCP-4, RANTES or MIP-1α) for 15 minutes at 37° C. in a 96-well plate in a final volume of 0.2 ml (e.g., PBS+0.5% FCS). After the incubation, 0.5 ml of ice-cold wash buffer (20 mM Tris, 0.5 M NaCl, pH 7.4) is added, and cells are collected onto a polyethyleneimine-treated Whatman GF/C filter using a Brandall cell harvester. Filters are washed with 4 ml of cold wash buffer, and the radioactivity bound to the filters is counted in a γ-counter.
For Scatchard analysis, the absorbance readings at 450 nm were calibrated, by reference to a standard curve in which known amounts of labeled peptide were coupled to derivatized sepharose beads (activated thiol-sepharose 4B; Sigma T8512) via the cysteine residue in each peptide. Briefly, known amounts (1 fmol to 1 pmol) of biotin-labeled peptide were incubated with 1 mg of activated thiol-sepharose beads in 100 μl of PBS at 37° C. for 1 hour. Free activated thiols were then blocked by addition of cysteine to a final concentration of 10 mM. The peptide-conjugated beads were then washed 5 times in PBS and treated exactly as for the cells described above. The absorbance at 450 nm obtained when a known amount of peptide was coupled to the beads was used to construct a standard curve which was used to convert the absorbance readings obtained with cells into number of molecules of labeled peptide which had bound.

[8] = tested on: RANTES induced THP-1 migration; test: THP-1 trans-well migration assay, RANTES as chemoattractant; assay type: cell-based, human; settings: tripeptide at 100 μM, mean ± range; dash = no statistically significant reduction in migration
Method: To determine whether an agent inhibits a chemokine-induced activity, such as macrophage recruitment, varying amounts of the agent are mixed with cells in the presence of a known chemoattractant. For example, a range of known concentrations of an agent, e.g., a chemokine peptide, is incubated with a defined number (e.g., 10^4-10^6) of human THP-1 monocyte cells in individual wells of the top compartment of a trans-well plate. Chemokine (such as MCP-1, MIP1α, IL8 or SDF-1α), at a concentration known to cause significant migration of THP-1 cells in the trans-well migration assay, is placed in the lower compartment (FIG. 1). […] A standard curve consisting of a two-fold dilution series of THP-1 cells (in 29 μl) is prepared to accurately quantify the number of cells that have migrated. […] Absorbance of converted dye is measured at a wavelength of 595 nm using an ELISA plate reader. The number of migrated cells in each well is then determined by interpolation of the standard curve (see also Imai et al., J. Biol. Chem., 272, 15036 (1997)). […]
After incubation, the cells were gently removed from the top of the filter with a pipette, 20 μl of 20 mM EDTA in PBS was added into each top well, and the mixture was incubated for 20 minutes at 4° C. […] A standard curve was prepared to accurately quantify the number of THP-1 cells that had migrated. […]

[9] = tested on: TGF-beta receptor of THP-1 cells; test: Binding of biotinylated TGF-beta peptides to THP-1 cells; design: species or system human; settings: for EC50: biotinylated peptide, read-out: ED50 of binding to the TGF-beta receptor of THP-1 cells

Row | Compound | % virus inhibition (HIV) | SDF1a ED-50 [1] | gp120 ED-50 (gp120) | MIPIa ED-50 [2] | MCP-1 ED-50 [3] | DARC binding [5] | further results
1 | CC[C@H](C)[C@H](NC(=O)[C@H](CCCNC(=N)N)NC(=O)[C@H](CCCNC(=N)N)NC(=O)[C@H](Cc1ccc(O)cc1)NC(=O)[C@@H](N)CO)C(=O)N[C@H](C(=O)N[C@@H](CO)C(=O)N[C@@H](CO)C(=O)N[C@@H](CCCCN)C(=O)N[C@@H](CS)C(=O)O)[C@@H](C)O | ns | ns | 60 µM | ns | ns |  | 
2 | NCC[C@H](O)C(=O)N[C@@H]1C[C@H](N)[C@@H](O[C@H]2O[C@H](CN)[C@@H](O)[C@H](O)[C@H]2O)[C@H](O)[C@H]1O[C@H]1O[C@H](CO)[C@@H](O)[C@H](N)[C@H]1O [amikacin] |  |  |  |  |  |  | T1/2 [4]: about 2 hours; Vd [4]: 0.27 L/kg; urinary excretion [4]: 98%
3 | =cvaekpsksstirrysc= ([dC][dV][dA][dE][dK][dP][dS][dK][dS][dS][dT][dI][dR][dR][dY][dS][dC]; disulfide 1-17 (inferred); not fully specified (C-terminus); printed as =cvaekpsksstirrysc=) | ns | ns | ns | ns | ns |  | 
4 | CSKPGV | ns | ns | ns | ns | ns | ns | 
5 | CSYRRITSSKSPKEAVC | ns | ns |  | ns | ns | ns | 
6 | DYFETSSQC | ns | ns | ns | ns | ns | ns | 
7 | HLKILNTPNCALQIV [Pep2[SDF1]] |  | 7 =M | 35 µM | 40 =M | 10 =M |  | effect on THP-1 migration induced by the chemokine panel, in words [6]: potent pan-chemokine antagonist properties; DUFFY SELECTIVITY, peptide 2 family ([5]; ka for binding to red blood cells divided by the ka for binding THP-1 cells): <1^d; AVERAGE ED50, peptide 2 family: estimated ka for binding to THP-1 cells [7]: 1-10^e μM
8 | SES |  |  |  |  |  |  | percentage inhibition of migration induced by RANTES [8]: 87 ± 4%
9 | SYRRI | ns | ns | ns | ns | ns | ns | 
10 | TSSKC | ns | ns | ns | ns | ns | ns | 
11 | biotinylated HEPKGYHANFC [Biotinylated T2] |  |  |  |  |  |  | receptor character (agonist, antagonist, neutral) [9]: weak receptor antagonist; EC50 [9]: 30 µM
12 | biotinylated LYIDFRQDLGWKW (also: biotinylated, site not given here) [Biotinylated T1] |  |  |  |  |  |  | receptor character (agonist, antagonist, neutral) [9]: receptor neutral agent; EC50 [9]: 18 µM
13 | vgpkscqsstefyd | ns | ns | ns | ns | ns | ns | 
